Laboratory results as given in patent publication US7138525B2, “N-substituted-2-oxodihydropyridine derivatives” (Banyu Pharmaceutical Co., Ltd., priority 2002, dated 2006).
Read-outs that look alike come from different tables or passages of the source.

Assays:
human NPY Y5 receptor = target: T1, human NPY Y5 receptor (Homo sapiens, UniProt Q15761); experiment: NPY binding inhibition test ([125I]peptideYY binding to membranes of NPY Y5 receptor expressing cells); settings: 25° C., 2 hours, membrane of NPY Y5 receptor expressing cells, read-out: IC50 against specific peptideYY binding
T1 construct: expressed in transfected cells; host or cells: COS-7, CHO and LM(tk-) cells (membrane preparation)
T1 sequence (Q15761 1-445): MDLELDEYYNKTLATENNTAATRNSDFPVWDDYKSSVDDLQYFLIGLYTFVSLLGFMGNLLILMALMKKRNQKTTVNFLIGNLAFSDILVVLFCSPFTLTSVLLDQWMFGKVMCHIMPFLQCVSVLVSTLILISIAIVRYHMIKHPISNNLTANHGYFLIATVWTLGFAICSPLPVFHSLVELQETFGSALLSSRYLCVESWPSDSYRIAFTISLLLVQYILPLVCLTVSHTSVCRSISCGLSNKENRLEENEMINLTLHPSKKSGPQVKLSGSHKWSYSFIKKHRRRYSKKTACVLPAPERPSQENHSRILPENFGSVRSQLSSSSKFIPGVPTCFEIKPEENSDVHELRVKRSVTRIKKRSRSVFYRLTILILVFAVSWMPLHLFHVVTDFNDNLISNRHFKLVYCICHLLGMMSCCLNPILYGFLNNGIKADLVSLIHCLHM
Excerpt: cDNA sequence encoding human NPY Y5 receptor (c.f. International patent publication number WO96/16542) was cloned into expression vectors pcDNA3, pRc/RSV (made by Invitrogen Inc.) and pCI-neo (made by Promega Inc.). The expression vectors thus obtained were transfected to host cells COS-7, CHO and LM(tk−) (American Type Culture Collection) by cationic lipid method (Proceedings of the National Academy of Sciences of the United States of America, vol. 84: p. 7413(1987)) to give NPY Y5 receptor expression cells.
A membrane sample prepared from the cells which expressed NPY Y5 receptor was incubated together with a test compound and [^125I]peptideYY (made by NEN) (20,000 cpm) in an assay buffer (25 mM Tris buffer, pH7.4, containing 10 mM magnesium chloride, 1 mM phenylmethylsulfonyl fluoride, 0.1% bacitracin and 0.5% bovine serum albumin) at 25° C. for 2 hours, then filtered through a glass filter GF/C and washed with 5 mM Tris buffer (pH7.4) containing 0.3% BSA. The radio activity of the cake on the glass filter was measured. Non-specific binding was measured in the presence of 1 μM peptide YY, and a 50% Inhibitory Concentration (IC50) of the test compound against specific peptideYY binding was determined (Endocrinology, vol. 131: p. 2090(1992)).

[1] = Pharmacokinetics test (plasma concentration by LC/MS/MS); type: in vivo; settings: rat, male SD rats, overnight fasting, oral or intravenous administration
Protocol: A test compound was orally or intravenously administered to male SD rats (7–10 weeks old, 200–400 g) under the overnight fasting condition. About 100 μL of blood was collected from the tail vein by heparinized capillary at designated time. The blood was centrifuged (4° C., 6,000 r.p.m., 10 minutes) to obtain the plasma. 3-fold amount of ethanol containing an internal standard was added to plasma. The mixture was stirred, allowed to stand at −20° C. for 20 minutes, and then centrifuged (4° C., 10,000 r.p.m., 10 minutes). The supernatant was analyzed by LC/MS/MS, and the concentration of the test compound in the plasma was measured using a relative calibration curve.

[2] = Brain/cerebrospinal fluid transport test; type: in vivo; settings: male SD rats, 2 hours after oral administration (10 mg/kg); for concentration at 2 h: rat
Protocol: A test compound was orally or intravenously administered to male SD rats (7–10 weeks old, 200–400 g), and whole blood was collected from the abdominal aorta using a heparin-treated syringe under the ether anesthesia at designated time. Then, the head skin was cut out, and a dental 30 G needle was inserted between the cervical vertebrae, and it was further inserted into the cavum subarachnoideale. After 50 to 100 μL cerebrospinal fluid had been collected by a 1 ml-syringe through a tube connected to dental 30 G needle, the brain was extracted. The blood sample was centrifuged (4° C., 6,000 r.p.m., 10 minutes) to obtain the plasma. 3-fold amount of ethanol containing an internal standard was added, and stirred. The brain sample was homogenized after addition of 2 ml water, an aliquot of the homogenate was taken and 3-fold amount of ethanol containing an internal standard was added, and stirred. The cerebrospinal fluid was stirred after adding 3-fold amount of ethanol containing an internal standard. These samples were allowed to stand at −20° C. for 20 minutes, and then centrifuged (4° C., 12,000 g, 10 minutes). The supernatant was analyzed by LC/MS/MS, and the concentration of the test compound in the plasma, brain, and cerebrospinal fluid were measured by the method using a relative calibration curve.

IC50 (human NPY Y5 receptor) [nM] | SMILES | also measured
2.7 | C[C@@H]1NC(c2ccc(=O)n(C(F)F)c2)=NC1(c1ccc(F)cc1)c1ccc(C(F)(F)F)nc1 (single isomer, unassigned) [Example 1-7] | bioavailability [1]: 94%; half-life [1]: 8.5 h; concentration in the brain [2]: 2.48 nmol/g; concentration at 2 h ([2]; cerebrospinal fluid, read-out: concentration in the cerebrospinal fluid): 150 nM; concentration at 2 h ([2]; plasma, read-out: concentration in the plasma): 3170 nM
2.1 | CCn1cc(C2=NC(c3ccc(F)cc3)(c3ccc(C(F)(F)F)nc3)[C@H](C)N2)ccc1=O (single isomer, unassigned) [Example 1-8] | 
1.5 | CCCn1cc(C2=NC(c3ccc(F)cc3)(c3ccc(C(F)(F)F)nc3)[C@H](C)N2)ccc1=O (single isomer, unassigned) [Example 1-9] | 
2.3 | CCn1cc(C2=NC(c3ccc(F)cc3)(c3ccc(C(F)(F)F)nc3)[C@H](C)N2)cc(Cl)c1=O (single isomer, unassigned) [Example 1-11] | 
2.7 | C[C@@H]1NC(c2ccc(=O)n(C(F)F)c2)=NC1(c1ccc(Cl)cc1)c1ccnc(F)c1 (single isomer, unassigned) [Example 1-21] | 
2.8 | CCn1cc(C2=NC(c3ccc(Cl)cc3)(c3ccnc(F)c3)[C@H](C)N2)ccc1=O (single isomer, unassigned) [Example 1-23] | 
2.9 | CCn1cc(C2=NC(c3ccc(F)cc3)(c3ccc(C(F)(F)F)nc3)[C@H](C)N2)cc(F)c1=O (single isomer, unassigned) [Example 1-29] | 
2.8 | C[C@@H]1NC(c2ccc(=O)n(C(F)F)c2)=NC1(c1ccc(F)cc1)c1ccc(C(F)F)nc1 (single isomer, unassigned) [Example 1-42] | 
2.8 | CCn1cc(C2=NC(c3ccc(F)cc3)(c3ccc(C(F)F)nc3)[C@H](C)N2)cc(F)c1=O (single isomer, unassigned) [Example 1-45] | 
2.9 | CCn1cc(C2=N[C@@](c3ccc(F)cc3)(c3ccc(F)nc3)[C@H](C)N2)cc(F)c1=O [Example 1-25, 1-ethyl-3-fluoro-5-[(4S,5S)-4-(4-fluorophenyl)-4-(6-fluoro-3-pyridyl)-5-methyl-2-imidazolin-2-yl]-2-pyridone] | 
2.6 | CCc1cc(C2=N[C@@](c3ccc(F)cc3)(c3ccc(F)nc3)[C@H](C)N2)cn(C)c1=O [Example 1-39, 3-ethyl-5-[(4S,5S)-4-(4-fluorophenyl)-4-(6-fluoro-3-pyridyl)-5-methyl-2-imidazolin-2-yl]-1-methyl-2-pyridone] | 
2.5 | COn1cc(C2=N[C@](c3ccc(F)cc3)(c3ccc(C(F)(F)F)nc3)[C@H](C)N2)ccc1=O [Example 1-53, 5-[(4R,5S)-4-(4-fluorophenyl)-5-methyl-4-(6-trifluoromethyl-3-pyridyl)-2-imidazolin-2-yl]-1-methoxy-2-pyridone] | 
2.9 | CCc1cc(C2=N[C@@](c3ccc(F)cc3)(c3ccc(F)nc3)[C@H](C)N2)cn(C(F)F)c1=O [Example 1-70, 1-difluoromethyl-3-ethyl-5-[(4S,5S)-4-(4-fluorophenyl)-4-(6-fluoro-3-pyridyl)-5-methyl-2-imidazolin-2-yl]-2-pyridone] | 
